Measurements reported in patent US20170275270A1, “BENZYL SUBSTITUTED INDAZOLES” (Bayer Pharma Aktiengesellschaft, priority 2014, published 2017).
pIC50: −log10 of the molar value. Structures can show the parent of a compound that is named as a salt.

These molecules were tested against T1, catalytic domain of human Bub1 (amino acids 704-1085) (Homo sapiens, UniProt O43683) (assay: Bub1 kinase assay (TR-FRET)). Conditions: 10 μM ATP, read-out: Biological Assay 1: Bub1 kinase assay median IC50.
T1 construct: catalytic domain of human Bub1 (amino acids 704-1085); His6 (N); made in house; host or cells: Hi5 insect cells
T1 sequence (O43683 704-1085): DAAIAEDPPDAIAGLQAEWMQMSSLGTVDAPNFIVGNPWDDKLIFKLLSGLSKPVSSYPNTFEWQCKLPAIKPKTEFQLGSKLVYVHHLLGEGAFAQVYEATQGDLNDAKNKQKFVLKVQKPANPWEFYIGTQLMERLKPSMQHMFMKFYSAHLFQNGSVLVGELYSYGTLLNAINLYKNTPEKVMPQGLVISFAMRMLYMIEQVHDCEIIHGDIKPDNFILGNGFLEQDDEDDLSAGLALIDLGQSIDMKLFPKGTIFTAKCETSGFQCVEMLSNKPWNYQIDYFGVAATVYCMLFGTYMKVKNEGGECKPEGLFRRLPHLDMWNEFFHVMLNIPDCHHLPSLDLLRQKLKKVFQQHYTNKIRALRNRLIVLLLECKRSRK
Type: biochemical
Procedure: To this end, 100-fold concentrated compound solutions (in DMSO) were previously prepared by serial dilution (1:3.4) of 2 mM stocks in a clear low volume 384-well source microtiter plate (Greiner Bio-One, Frickenhausen, Germany), from which 50 nL of compounds were transferred into a black low volume test microtiter plate from the same supplier. […] The resulting mixture (5 μL final volume) was incubated at 22° C. during 60 min., and the reaction was stopped by the addition of 5 μL of an aqueous EDTA-solution (50 mM EDTA, in 100 mM HEPES pH 7.5 and 0.2% (w/v) bovine serum albumin) which also contained the TR-FRET detection reagents (0.2 μM streptavidin-XL665 [Cisbio Bioassays, Codolet, France] and 1 nM anti-phosho-Serine antibody [Merck Millipore, cat. #35-001] and 0.4 nM LANCE EU-W1024 labeled anti-mouse IgG antibody [Perkin-Elmer, product no. AD0077, alternatively a Terbium-cryptate-labeled anti-mouse IgG antibody from Cisbio Bioassays can be used]). The stopped reaction mixture was further incubated 1 h at 22° C. in order to allow the formation of complexes between peptides and detection reagents. Subsequently, the amount of product was evaluated by measurement of the resonance energy transfer from the Eu-chelate-antibody complex recognizing the Phosphoserine residue to the streptavidin-XL665 bound to the biotin moiety of the peptide. […] IC50 values were calculated by fitting the normalized inhibition data to a 4-parameter logistic equation (Minimum, Maximum, IC50, Hill; Y=Max+(Min−Max)/(1+(X/IC50) Hill)).
In the case of `CCOc1cc(F)c(Cn2nc(-c3ncc(CCN)c(Nc4ccnc(C)c4)n3)c3ccccc32)c(F)c1` [Example 2-9-12, 5-(2-aminoethyl)-2-[1-(4-ethoxy-2,6-difluorobenzyl)-1H-indazol-3-yl]-N-(2-methylpyridin-4-yl)pyrimidin-4-amine, salt with hydrochloric acid], the pIC50 was 8.37. Work on `CCOc1cc(F)c(Cn2nc(-c3ncc(CC4CNC4)c(Nc4ccnc(C)n4)n3)c3ccccc32)c(F)c1` [Example 2-9-20, 5-(azetidin-3-ylmethyl)-2-[1-(4-ethoxy-2,6-difluorobenzyl)-1H-indazol-3-yl]-N-(2-methylpyrimidin-4-yl)pyrimidin-4-amine, salt with hydrochloric acid] yielded a pIC50 of 7.31. With `CCOc1cc(F)c(Cn2nc(-c3ncc(CCN)c(Nc4ccncc4Cl)n3)c3ccccc32)c(F)c1` [Example 2-9-21, 5-(2-aminoethyl)-N-(3-chloropyridin-4-yl)-2-[1-(4-ethoxy-2,6-difluorobenzyl)-1H-indazol-3-yl]pyrimidin-4-amine] the pIC50 was 7.89. In the case of `CCOc1cc(F)c(Cn2nc(-c3ncc(CCN)c(Nc4ccnc(C)n4)n3)c3ccccc32)c(F)c1` [Example 2-9-22, 5-(2-aminoethyl)-2-[1-(4-ethoxy-2,6-difluorobenzyl)-1H-indazol-3-yl]-N-(2-methylpyrimidin-4-yl)pyrimidin-4-amine, salt with hydrochloric acid (1:2)], the pIC50 was 8.03. With `COCc1cc(Nc2ccncc2OC)nc(-c2nn(Cc3c(F)cc(OCCO)cc3F)c3ccccc23)n1` [Example 2-12-49, 2-{3,5-difluoro-4-[(3-{4-(methoxymethyl)-6-[(3-methoxypyridin-4-yl)amino]pyrimidin-2-yl}-1H-indazol-1-yl)methyl]phenoxy}eth-anol] the pIC50 was 8.06.

Same assay, conditions: Biological Assay 1: Bub1 kinase assay median IC50, 10 μM ATP
`CC(=O)Nc1cc(Nc2nc(-c3nn(Cc4c(F)cc(OCCO)cc4F)c4ccccc34)nc3c2CCC(C)(C)C3)ccn1` [Example 2-6-42, N-{4-[(2-{1-[2,6-difluoro-4-(2-hydroxyethoxy)benzyl]-1H-indazol-3-yl}-7,7-dimethyl-5,6,7,8-tetrahydroquin-azolin-4-yl)amino]pyridin-2-yl}acetamide] showed a pIC50 of 7.85. Molecule `Cc1cc(Nc2nc(-c3nn(Cc4c(F)cc(OCCO)cc4F)c4ccccc34)nc3c2CCC(C)(C)C3)c(C)cn1` [Example 2-6-43, 2-{4-[(3-{4-[(2,5-dimethylpyridin-4-yl)amino]-7,7-dimethyl-5,6,7,8-tetrahydroquin-azolin-2-yl}-1H-indazol-1-yl)methyl]-3,5-difluorophenoxy} ethanol] has a pIC50 of 7.08. With `COc1cnccc1Nc1nc(-c2nn(Cc3c(F)cc(OCCO)cc3F)c3ccccc23)nc2c1CCCCC2` [Example 2-6-44, 2-{3,5-difluoro-4-[(3-{4-[(3-methoxypyridin-4-yl)amino]-6,7,8,9-tetrahydro-5H-cyclohepta[d]pyrimidin-2-yl}-1H-indazol-1-yl)methyl]phenoxy}ethanol] the pIC50 was 7.92. With `CCOc1cc(F)c(Cn2nc(-c3nc4c(c(Nc5ccncc5)n3)CNCC4)c3ccccc32)c(F)c1` [Example 2-9-16, 2-[1-(4-ethoxy-2,6-difluorobenzyl)-1H-indazol-3-yl]-N-(pyridin-4-yl)-5,6,7,8-tetrahydro-pyrido[4,3-d]pyr-imidin-4-amine] the pIC50 was 7.80. `CCOc1cc(F)c(Cn2nc(-c3ncc(CC4CNC4)c(Nc4cc(C)ncc4C)n3)c3ccccc32)c(F)c1` [Example 2-9-19, 5-(azetidin-3-ylmethyl)-N-(2,5-dimethylpyridin-4-yl)-2-[1-(4-ethoxy-2,6-difluorobenzyl)-1H-indazol-3-yl]pyrimidin-4-amine, salt with hydrochloric acid] was tested, and the pIC50 was 7.36. In the case of `COCCOc1cc(F)c(Cn2nc(-c3nc4c(c(Nc5ccncc5Cl)n3)CNC4)c3ccccc32)c(F)c1` [Example 2-9-24, N-(3-chloropyridin-4-yl)-2-{1-[2,6-difluoro-4-(2-meth-oxyethoxy)benzyl]-1H-indazol-3-yl}-6,7-dihydro-5H-pyrrolo[3,4-d]pyrimidin-4-amine], the pIC50 was 7.42. For `COCCOc1cc(F)c(Cn2nc(-c3nc4c(c(Nc5ccnc(C)n5)n3)CNC4)c3ccccc32)c(F)c1` [Example 2-9-25, 2-{1-[2,6-difluoro-4-(2-methoxy-ethoxy)benzyl]-1H-indazol-3-yl}-N-(2-methylpyrimidin-4-yl)-6,7-dihydro-5H-pyrrolo[3,4-d]pyrimidin-4-amine, salt with hydrochloric acid], the pIC50 was 7.11. Molecule `COCCOc1cc(F)c(Cn2nc(-c3nc4c(c(Nc5cc(C)ncc5C)n3)CNC4)c3ccccc32)c(F)c1` [Example 2-9-26, 2-{1-[2,6-difluoro-4-(2-methoxy-ethoxy)benzyl]-1H-indazol-3-yl}-N-(2,5-dimethylpyridin-4-yl)-6,7-dihydro-5H-pyrrolo[3,4-d]pyr-imidin-4-amine] has a pIC50 of 6.74. `COCCOc1cc(F)c(Cn2nc(-c3nc4c(c(Nc5ccncn5)n3)CNC4)c3ccccc32)c(F)c1` [Example 2-9-27, 2-{1-[2,6-difluoro-4-(2-methoxy-ethoxy)benzyl]-1H-indazol-3-yl}-N-(pyrimidin-4-yl)-6,7-dihydro-5H-pyrrolo[3,4-d]pyr-imidin-4-amine, salt with hydrochloric acid] was tested, and the pIC50 was 7.70. `CCOc1cc(F)c(Cn2nc(-c3ncc(CC4CN(CC(F)(F)F)C4)c(Nc4ccnc(NC(C)=O)c4)n3)c3ccccc32)c(F)c1` [Example 2-11-4, N-{4-[(2-[1-(4-ethoxy-2,6-difluorobenzyl)-1H-indazol-3-yl]-5-{[1-(2,2,2-trifluoroeth-yl)azetidin-3-yl]methyl}pyrimidin-4-yl)amino]pyr-idin-2-yl}acetamide] showed a pIC50 of 6.68. With `CCOc1cc(F)c(Cn2nc(-c3nc(C)cc(Nc4ccncc4)n3)c3ccccc32)c(F)c1` [Example 2-12-1, 2-[1-(4-ethoxy-2,6-difluorobenzyl)-1H-indazol-3-yl]-6-methyl-N-(pyridin-4-yl)pyrimidin-4-amine] the pIC50 was 8.08. In the case of `CCOc1cc(F)c(Cn2nc(-c3nc(C)c(CC)c(Nc4ccncc4)n3)c3ccccc32)c(F)c1` [Example 2-12-8, 2-[1-(4-ethoxy-2,6-difluorobenzyl)-1H-indazol-3-yl]-5-ethyl-6-methyl-N-(pyridin-4-yl)pyrimidin-4-amine], the pIC50 was 7.80. In the case of `CCOc1cc(F)c(Cn2nc(-c3nc4c(c(Nc5ccncc5)n3)CCN(Cc3ccccc3)C4)c3ccccc32)c(F)c1` [Example 2-12-15, 7-Benzyl-2-[1-(4-ethoxy-2,6-difluorobenzyl)-1H-indazol-3-yl]-N-(pyridin-4-yl)-5,6,7,8-tetrahydropyrido[3,4-d]pyrimidin-4-amine], the pIC50 was 7.17. Work on `COc1ccc(Cn2nc(-c3nc(C)c(F)c(Nc4ccncc4)n3)c3ccccc32)cc1` [Example 2-12-24, 5-fluoro-2-[1-(4-methoxybenzyl)-1H-indazol-3-yl]-6-methyl-N-(pyridin-4-yl)-pyrimidin-4-amine] yielded a pIC50 of 7.26. In the case of `COCCOc1cc(F)c(Cn2nc(-c3nc(CN4CCOCC4)cc(Nc4ccnc(C(F)F)c4)n3)c3ccccc32)c(F)c1` [Example 2-12-36, 2-{1-[2,6-difluoro-4-(2-methoxyethoxy)benzyl]-1H-indazol-3-yl}-N-[2-(difluoromethyl)pyridin-4-yl]-6-(morpholin-4-ylmethyl)pyrimidin-4-amine], the pIC50 was 7.24. For `COCCOc1cc(F)c(Cn2nc(-c3nc(CN4CCOCC4)cc(Nc4ccncn4)n3)c3ccccc32)c(F)c1` [Example 2-12-37, 2-{1-[2,6-difluoro-4-(2-methoxyethoxy)benzyl]-1H-indazol-3-yl}-6-(morpholin-4-ylmethyl)-N-(pyrimidin-4-yl)pyrimidin-4-amine], the pIC50 was 7.77. In the case of `COCCOc1cc(F)c(Cn2nc(-c3nc(CN4CCOCC4)cc(Nc4ccncc4Cl)n3)c3ccccc32)c(F)c1` [Example 2-12-40, N-(3-chloropyridin-4-yl)-2-{1-[2,6-difluoro-4-(2-methoxyethoxy)benzyl]-1H-indazol-3-yl}-6-(morpholin-4-ylmethyl)pyrimidin-4-amine], the pIC50 was 8.00. For `CCOc1cc(F)c(Cn2nc(-c3nc(CN4CCOCC4)cc(Nc4ccnc(O)c4)n3)c3ccccc32)c(F)c1` [Example 2-12-46, 4-({2-[1-(4-ethoxy-2,6-difluorobenzyl)-1H-indazol-3-yl]-6-(morpholin-4-ylmethyl)pyrimidin-4-yl}amino)pyridin-2-ol], the pIC50 was 5.96. `COCCOc1cc(F)c(Cn2nc(-c3nc4c(c(Nc5ccnc(C)n5)n3)CCC4)c3ccccc32)c(F)c1` [Example 2-12-55, 2-{1-[2,6-difluoro-4-(2-methoxyethoxy)benzyl]-1H-indazol-3-yl}-N-(2-methylpyrimidin-4-yl)-6,7-dihydro-5H-cyclopenta[d]pyrimidin-4-amine] showed a pIC50 of 7.36. Molecule `COCCOc1cc(F)c(Cn2nc(-c3nc4c(c(Nc5ccncn5)n3)CCC4)c3ccccc32)c(F)c1` [Example 2-12-56, 2-{1-[2,6-difluoro-4-(2-methoxyethoxy)benzyl]-1H-indazol-3-yl}-N-(pyrimidin-4-yl)-6,7-dihydro-5H-cyclopenta[d]pyrimidin-4-amine] has a pIC50 of 8.15.
